In ChEMBL document CHEMBL5226351, “Sycosterol A, an α-Synuclein Inhibitory Sterol from the Australian Ascidian Sycozoa cerebriformis” (J Nat Prod, 2021):
Calls of active or inactive are those of the source. The rule behind the calls is not given here.

Tests used:
[1] = target: Alpha-synuclein (Homo sapiens) (UniProt P37840); assay: Binding affinity to human alpha-Synuclein at compound to protein molar ratio of 5:1 incubated for 3 hrs by mass spectroscopy analysis
[2] = target: Alpha-synuclein (Homo sapiens) (UniProt P37840); assay: Inhibition of human alpha-Synuclein aggregation at 400 uM incubated for 72 hrs under shaking condition by Thioflavin T based fluorimeter assay relative to control
[3] = target: Alpha-synuclein (Homo sapiens) (UniProt P37840); assay: Inhibition of human alpha-Synuclein aggregation at compound:protein ratio of 1:5 incubated for 72 hrs under shaking condition by Thioflavin T based fluorimeter assay relative to control; conditions: concentration not given here

| Structure (SMILES) | Activity [1] | inhibition [2] [%] | inhibition [3] [%] |
| --- | --- | --- | --- |
| CC(CCC[C@@H](C)[C@H]1[C@H](O)[C@@H](O)[C@@H]2[C@]1(C)CC[C@@H]1[C@@]3(C)CC[C@@H](O)C[C@@H]3C[C@@H](O)[C@]12O)COS(=O)(=O)O (some centres undefined) | Active | 46.2 | – |
| O=C(O[C@@H]1Cc2c(O)cc(O)cc2O[C@@H]1c1cc(O)c(O)c(O)c1)c1cc(O)c(O)c(O)c1 | Active | – | 93.6 |
